# Results reported in US11964960B2 (Cornell University, priority 2018, dated 2024).
# Molecular target: T1, S1P2 (Homo sapiens, UniProt O95136)
# T1 construct: Flag; expressed in transfected cells; host or cells: Chinese hamster ovary (CHO) cells, doxycycline-inducible (CHO-S1P2-FL / CHO-S1PR2 FL)
# Assay: GLISA RhoA activation - antagonist assay
# Format: cell-based
# Details: 1 μM compound, CHO-S1P2-FL cells
# Protocol: GLISA RhoA Activation—Antagonist Assay
# GLISA assays were performed using RhoA (BK124) activation kit purchased from Cytoskeleton Inc., Denver, CO Doxycycline-inducible Flag-tag S1P2 expressing Chinese hamster ovary (CHO) cells (CHO-S1P2-FL) were seeded in a 6-well plate, 1.5×10^5 cells per well. Cells were stimulated with […] of Doxycycline to induce S1P2 expression in serum free IMDM media with 0.1% BSA/PBS. Following day, cells were stimulated with the compounds described herein (1 nM-10 μM) or 1 μM JTE-013 for 1 hour at 37° C. Following compound incubation, cells were washed with PBS×3 and induced with 100 nM […] for 5 min. […] Protein concentration was examined using GLISA—Precision Red Advanced Protein assay reagent as described in assay manual. Lysates were immobilized on GTP-bound capture plate and GLISA assay was performed based on manufacture recommendations as reported previously.
# T1 sequence (O95136 whole entry, species assumed): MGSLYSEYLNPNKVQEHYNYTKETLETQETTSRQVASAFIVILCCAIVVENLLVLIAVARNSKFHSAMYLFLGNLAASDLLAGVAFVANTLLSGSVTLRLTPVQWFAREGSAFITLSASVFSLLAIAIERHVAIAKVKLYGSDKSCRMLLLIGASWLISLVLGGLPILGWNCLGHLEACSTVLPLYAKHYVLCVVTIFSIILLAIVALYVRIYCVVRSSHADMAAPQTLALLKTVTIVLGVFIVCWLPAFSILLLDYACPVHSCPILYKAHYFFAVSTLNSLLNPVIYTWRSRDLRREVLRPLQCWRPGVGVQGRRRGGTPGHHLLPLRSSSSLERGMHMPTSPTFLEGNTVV
row,inhibition at 1 µM [%],Compound
1,10,"Cc1nnc(Cn2c(C)cc(C(=O)C(C)n3cc(Br)ccc3=O)c2C)o1 (centres unmarked) [Example 57, 5-Bromo-1-(1-(2,5-dimethyl-1-((5-methyl-1,3,4-oxadiazol-2-yl)methyl)-1H-pyrrol-3-yl)-1-oxopropan-2-yl)pyridin-2(1H)-one]"
2,< 10,"Cc1cc(C(=O)C(C)n2cc(Br)ccc2=O)c(C)n1CC1CC1 (centres unmarked) [Example 58, 5-Bromo-1-(1-(1-(cyclopropylmethyl)-2,5-dimethyl-1H-pyrrol-3-yl)-1-oxopropan-2-yl)pyridin-2(1H)-one]"
3,< 10,"Cc1cc(C(=O)C(C)n2cc(Br)ccc2=O)c(C)n1CC1CCC1 (centres unmarked) [Example 59, 5-Bromo-1-(1-(1-(cyclobutylmethyl)-2,5-dimethyl-1H-pyrrol-3-yl)-1-oxopropan-2-yl)pyridin-2(1H)-one]"
4,< 10,"COc1cccc(Cn2c(C)cc(C(=O)C(C)n3cc(Br)ccc3=O)c2C)c1 (centres unmarked) [Example 60, 5-Bromo-1-(1-(1-(3-methoxybenzyl)-2,5-dimethyl-1H-pyrrol-3-yl)-1-oxopropan-2-yl)pyridin-2(1H)-one]"
5,18,"COc1ccc(Cn2c(C)cc(C(=O)C(C)n3cc(Br)ccc3=O)c2C)cc1 (centres unmarked) [Example 61, 5-Bromo-1-(1-(1-(4-methoxybenzyl)-2,5-dimethyl-1H-pyrrol-3-yl)-1-oxopropan-2-yl)pyridin-2(1H)-one]"
6,11,"Cc1cc(C(=O)C(C)n2cc(Br)ccc2=O)c(C)n1Cc1cccc(F)c1 (centres unmarked) [Example 62, 5-Bromo-1-(1-(1-(3-fluorobenzyl)-2,5-dimethyl-1H-pyrrol-3-yl)-1-oxopropan-2-yl)pyridin-2(1H)-one]"
7,17,"Cc1cccc(Cn2c(C)cc(C(=O)C(C)n3cc(Br)ccc3=O)c2C)c1 (centres unmarked) [Example 63, 5-Bromo-1-(1-(2,5-dimethyl-1-(3-methylbenzyl)-1H-pyrrol-3-yl)-1-oxopropan-2-yl)pyridin-2(1H)-one]"
8,< 10,"Cc1ccccc1Cn1c(C)cc(C(=O)C(C)n2cc(Br)ccc2=O)c1C (centres unmarked) [Example 64, 5-Bromo-1-(1-(2,5-dimethyl-1-(2-methylbenzyl)-1H-pyrrol-3-yl)-1-oxopropan-2-yl)pyridin-2(1H)-one]"
9,11,"Cc1ccc(Cn2c(C)cc(C(=O)C(C)n3cc(Br)ccc3=O)c2C)cc1 (centres unmarked) [Example 65, 5-Bromo-1-(1-(2,5-dimethyl-1-(4-methylbenzyl)-1H-pyrrol-3-yl)-1-oxopropan-2-yl)pyridin-2(1H)-one]"
10,< 10,"O=C(Cn1cc(Br)ccc1=O)N1CCC(Cc2ccc(F)cc2)C1 (centres unmarked) [Example 66, 5-Bromo-1-(2-(3-(4-fluorobenzyl)pyrrolidin-1-yl)-2-oxoethyl)pyridin-2(1H)-one]"
11,42,"O=C(Cn1cc(Br)ccc1=O)N1CCC(c2ccc(F)cc2)C1 (centres unmarked) [Example 67, 5-Bromo-1-(2-(3-(4-fluorophenyl)pyrrolidin-1-yl)-2-oxoethyl)pyridin-2(1H)-one]"
12,18,"Cc1cc(C(=O)Cn2cc(Br)ccc2=O)nn1Cc1ccc(F)cc1 [Example 68, 5-Bromo-1-(2-(1-(4-fluorobenzyl)-5-methyl-1H-pyrazol-3-yl)-2-oxoethyl)pyridin-2(1H)-one]"

# Same assay, conditions: CHO-S1P2-FL cells, 1 hour compound incubation, then for 5 min
row,IC50 [nM],Compound
1,> 10000,"COc1ccc(=O)n(CC(=O)c2cc(C)n(Cc3ccccc3)c2C)c1 [Example 50, 1-(2-(1-Benzyl-2,5-dimethyl-1H-pyrrol-3-yl)-2-oxoethyl)-5-methoxypyridin-2(1H)-one]"
2,> 10000,"Cc1cc(C(=O)Cn2cc(C(C)(C)C)ccc2=O)c(C)n1Cc1ccccc1 [Example 53, 1-(2-(1-Benzyl-2,5-dimethyl-1H-pyrrol-3-yl)-2-oxoethyl)-5-(tert-butyl)pyridin-2(1H)-one]"
3,> 10000,"CC(=O)Nc1ccc(=O)n(CC(=O)c2cc(C)n(Cc3ccccc3)c2C)c1 [Example 54, N-(1-(2-(1-Benzyl-2,5-dimethyl-1H-pyrrol-3-0)-2-oxoethyl)-6-oxo-1,6-dihydropyridin-3-yl)acetamide]"
4,110,"Cc1c(C(=O)Cn2nc(Br)ccc2=O)cnn1Cc1ccccc1 [Example 55, 2-(2-(1-Benzyl-5-methyl-1H-pyrazol-4-yl)-2-oxoethyl)-6-bromopyridazin-3(2H)-one]"
5,200,"Cc1c(C(=O)Cn2cc(Br)cnc2=O)cnn1Cc1ccccc1 [Example 56, 1-(2-(1-Benzyl-5-methyl-1H-pyrazol-4-yl)-2-oxoethyl)-5-bromopyrimidin-2(1H)-one]"
6,50,"Cc1c(C(=O)Cn2cc(C#N)cc(C#N)c2=O)cnn1Cc1ccccc1 [Example 69, 1-(2-(1-Benzyl-5-methyl-1H-pyrazol-4-yl)-2-oxoethyl)-2-oxo-1,2-dihydropyridine-3,5-dicarbonitrile]"
7,181,"Cc1c(C(=O)Cn2cc(Br)ncc2=O)cnn1Cc1ccccc1 [Example 70, 1-(2-(1-Benzyl-5-methyl-1H-pyrazol-4-yl)-2-oxoethyl)-5-bromopyrazin-2(1H)-one]"
8,22,"Cc1c(C(=O)Cn2c(F)c(Br)ccc2=O)cnn1Cc1ccccc1 [Example 71, 1-(2-(1-Benzyl-5-methyl-1H-pyrazol-4-yl)-2-oxoethyl)-5-bromo-6-fluoropyridin-2(1H)-one]"
9,91,"Cc1c(C(=O)Cn2cc(Br)c(F)cc2=O)cnn1Cc1ccccc1 [Example 72, 1-(2-(1-Benzyl-5-methyl-1H-pyrazol-4-yl)-2-oxoethyl)-5-bromo-4-fluoropyridin-2(1H)-one]"
10,59,"C#Cc1ccc(=O)n(C(C)C(=O)c2cnn(Cc3ccccc3)c2C)n1 (centres unmarked) [Example 73, 2-(1-(1-Benzyl-5-methyl-1H-pyrazol-4-yl)-1-oxopropan-2-yl)-6-ethynylpyridazin-3(2H)-one]"
11,130,"C=Cc1ccc(=O)n(C(C)C(=O)c2cnn(Cc3ccccc3)c2C)n1 (centres unmarked) [Example 76, 2-(1-(1-Benzyl-5-methyl-1H-pyrazol-4-yl)-1-oxopropan-2-yl)-6-vinylpyridazin-3(2H)-one]"
12,100,C#Cc1ccc(=O)n(C(C)C(=O)c2cnn(Cc3ccccn3)c2C)c1 (centres unmarked) [Example 77]
13,50,"C=Cc1ccc(=O)n(C(C)C(=O)c2cnn(Cc3ccccn3)c2C)c1 (centres unmarked) [Example 79, 1-(1-(5-Methyl-1-(pyridin-2-ylmethyl)-1H-pyrazol-4-yl)-1-oxopropan-2-yl)-5-vinylpyridin-2(1H)-one]"
14,97,"C=Cc1ccc(=O)n(CC(=O)c2cnn(Cc3ccccn3)c2CC)c1 [Example 80, 1-(2-(5-Ethyl-1-(pyridin-2-ylmethyl)-1H-pyrazol-4-yl)-2-oxoethyl)-5-vinylpyridin-2(1H)-one]"
15,181,"C=C(C)c1ccc(=O)n(CC(=O)c2cnn(Cc3ccccc3)c2C)c1 [Example 81, 1-(2-(1-Benzyl-5-methyl-1H-pyrazol-4-yl)-2-oxoethyl)-5-(prop-1-en-2-yl)pyridin-2(1H)-one]"
16,74,"C=Cc1ccc(=O)n(CC(=O)c2cnn(Cc3ccccc3)c2C(F)(F)F)c1 [Example 82, 1-(2-(1-Benzyl-5-(trifluoromethyl)-1H-pyrazol-4-yl)-2-oxoethyl)-5-vinylpyridin-2(1H)-one]"
17,82,C=C(F)c1ccc(=O)n(CC(=O)c2cnn(Cc3ccccc3)c2C)c1 [Example 83]
18,43,"C=C(c1ccc(=O)n(CC(=O)c2cnn(Cc3ccccc3)c2C)c1)C(F)(F)F [Example 84, 1-(2-(1-Benzyl-5-methyl-1H-pyrazol-4-yl)-2-oxoethyl)-5-(3,3,3-trifluoroprop-1-en-2-yl)pyridin-2(1H)-one]"
19,108,"C=Cc1ccc(=O)n(CC(=O)c2cnn(Cc3ccccc3)c2CC)c1 [Example 85, 1-(2-(1-Benzyl-5-ethyl-1H-pyrazol-4-yl)-2-oxoethyl)-5-vinylpyridin-2(1H)-one]"
20,92,"C=Cc1ccc(=O)n(CC(=O)c2c(C)nn(Cc3ccccc3)c2C)c1 [Example 86, 1-(2-(1-Benzyl-3,5-dimethyl-1H-pyrazol-4-yl)-2-oxoethyl)-5-vinylpyridin-2(1H)-one]"
21,107,"C=Cc1ccc(=O)n(CC(=O)c2cnn(Cc3ccccc3)c2C(F)F)c1 [Example 87, 1-(2-(1-Benzyl-5-(difluoromethyl)-1H-pyrazol-4-yl)-2-oxoethyl)-5-vinylpyridin-2(1H)-one]"

# The remaining lines, values behind:
row,Compound,IC50 [nM]
1,"Cc1cc(=O)n(CC(=O)c2cc(C)n(Cc3ccccc3)c2C)cc1C#N [Example 49, 1-(2-(1-Benzyl-2,5-dimethyl-1H-pyrrol-3-yl)-2-oxoethyl)-4-methyl-6-oxo-1,6-dihydropyridine-3-carbonitrile]",> 10000
2,"Cc1cc(C(=O)C(Cc2ccccc2)n2cc(C#N)ccc2=O)c(C)n1Cc1ccccc1 (centres unmarked) [Example 51, 1-(1-(1-Benzyl-2,5-dimethyl-1H-pyrrol-3-yl)-1-oxo-3-phenylpropan-2-yl)-6-oxo-1,6-dihydropyridine-3-carbonitrile]",> 10000
3,"Cc1cc(C(=O)C(C)n2cc(C#N)ccc2=O)c(C)n1Cc1ccccc1 (centres unmarked) [Example 52, 1-(1-(1-Benzyl-2,5-dimethyl-1H-pyrrol-3-yl)-1-oxopropan-2-yl)-6-oxo-1,6-dihydropyridine-3-carbonitrile]",> 10000
4,"C#Cc1ccc(=O)n(C(C)C(=O)c2cnn(Cc3ccc(F)cc3)c2C)n1 (centres unmarked) [Example 74, 6-Ethynyl-2-(1-(1-(4-fluorobenzyl)-5-methyl-1H-pyrazol-4-yl)-1-oxopropan-2-yl)pyridazin-3(2H)-one]",46
5,"C#Cc1ccc(=O)n(C(C)C(=O)c2cnn(Cc3ccc(F)cc3F)c2C)n1 (centres unmarked) [Example 75, 2-(1-(1-(2,4-Difluorobenzyl)-5-methyl-1H-pyrazol-4-yl)-1-oxopropan-2-yl)-6-ethynylpyridazin-3(2H)-one]",58
